Measured values reported in patent publication US20160332971A1, “ARYLQUINOLINE, ARYLQUINOLONE AND ARYLTHIOQUINOLONE DERIVATIVES AND USE THEREOF TO TREAT CANCER” (UNIVERSITY OF KENTUCKY RESEARCH FOUNDATION, priority 2015, published 2016).
Where two headings read alike, the source gives them in different places.

Columns and labels:
[1] = tested on: Par-4 secretion from mouse fibroblasts; assay: Par-4 secretion into conditioned medium, quantitative Western blot normalised to CollA1; assay type: cell-based; details: for Relative Levels of Par-4 Secretion by Arylquins Administered at 500 nM / fold induction at 0.5 µM: 24 h; for Relative Levels of Par-4 Secretion by Arylquins Administered at 500 nM: mouse fibroblasts, CM; for Par-4 secretory activity (in words): SAR discussion; for fold induction at 0.5 µM: Mus musculus, Fibroblast, read-out: Ratio of Par-4 Secretion by Arylquin 1 Relative to Vehicle
Protocol: Calibration curve developed using fixed amounts (0.05-5 ng) of recombinant TRX-Par-4. […] Therefore the concentration was 0.82 ng/40 μL or 540 pM, In the same fashion, calculation for Par-4 concentration using vehicle (v) was 280 pM.
Biological activity of 3-Arylquinolines. […] After 24 h exposure, the CM and lysates were subjected to quantitative Western blot analysis for Par-4 and collagen (CollA1).
Co-immunoprecipitation and Western blot analysis. Protein extracted from cell lysates was filtered, pre-cleared with 25 μL (bed volume) of protein G-Sepharose beads and immunoprecipitated with 1 μg of respective antibodies. The eluted proteins were resolved by SDS-PAGE, and subjected to Western blot analysis as described previously. Bensch, et al. Nature 1968, 218(5147):1176-1177.
Statistical analyses. All experiments were performed in triplicate to verify the reproducibility of the findings. […] Statistical analyses were carried out with Statistical Analysis System software (SAS Institute, Cary, N.C.) and P values were calculated using the Student t test.

Row | Molecule | melting point [°C] | Relative Levels of Par-4 Secretion by Arylquins Administered at 500 nM ([1]; Table 1) | Par-4 secretory activity (in words) ([1]; 500 nM) | Relative Levels of Par-4 Secretion by Arylquins Administered at 500 nM ([1]; Table 2) | other results
1 | 3-(2,3-Difluorophenyl)-N^7,N^7-dimethylquinoline-2,7-diamine [Arylquin 1i] |  | 88.4 ± 1.3 | comparable to 1a, 1b and 1h |  | 
2 | 3-(2,5-Difluorophenyl)-N^7,N^7-dimethylquinoline-2,7-diamine [Arylquin 1l] |  | 64.9 ± 13.1 |  |  | 
3 | CN(C)c1ccc2cc(-c3ccccc3F)c(N)nc2c1 [Arylquin 1a] |  |  | superior in potency |  | increase in Par-4 concentrations in the CM from basal levels ([1]; 500 nM, vs vehicle alone): two-fold increase; Par-4 concentration in the CM ([1]; 500 nM, calibration with recombinant TRX-Par-4 (FIG. 3), vehicle 280 pM): 540 pM
4 | CN(C)c1ccc2cc(-c3cccc(F)c3F)c(N)nc2c1 [Arylquin 1h, 3-(2,3-Difluorophenyl)-N^7,N^7-dimethylquinoline-2,7-diamine] |  | 93.2 ± 10.6 | equipotent to the original arylquinoline 1a |  | fold induction at 0.5 µM ([1]; 500 nM, Table 1): 3.1
5 | CN(C)c1ccc2cc(-c3cc(F)ccc3F)c(N)nc2c1 [Arylquin 1k, 3-(2,5-Difluorophenyl)-N^7,N^7-dimethylquinoline-2,7-diamine] |  | 86.2 ± 7.5 | equipotent to the original arylquinoline 1a |  | fold induction at 0.5 µM ([1]; 500 nM, Table 1): 2.9
6 | CCOC(=O)c1cn2c(n1)c(-c1ccccc1F)cc1ccc(N(C)C)cc12 [Arylquin 8b] |  |  | little Par-4 secretory activity |  | 
7 | CN(C)c1ccc2cc(-c3ccccc3F)c(=O)[nH]c2c1 [Arylquin 9] |  |  | diminished Par-4 secretory activity relative to arylquinoline 1a | 33.2 ± 0.9 | Ratio of Par-4 Secretion by Arylquin 1 Relative to Vehicle ([1]; 500 nM, Table 2): 1.1
8 | CSc1nc2cc(N(C)C)ccc2cc1-c1ccccc1F [Arylquin 11, 3-(2-Fluorophenyl)-N,N-dimethyl-2-(methylthio)quinolin-7-amine] |  |  | diminished activity to varying degrees | 75.4 ± 7.0 | fold induction at 0.5 µM ([1]; 500 nM, Table 2): 2.5
9 | CN(C)c1ccc2cc(-c3ccccc3F)c(Cl)nc2c1 [Arylquin 12, 2-Chloro-3-(2-fluorophenyl)-N,N-dimethylquinolin-7-amine] |  |  | activity comparable to but not exceeding that of arylquinoline 1a | 104.5 ± 26.9 | fold induction at 0.5 µM ([1]; 500 nM, Table 2): 3.5
10 | CN1CCN(c2nc3cc(N(C)C)ccc3cc2-c2ccccc2F)CC1 [Arylquin 13b, 3-(2-Fluorophenyl)-N,N-dimethyl-2-(4-methylpiperazin-1-yl)quinolin-7-amine] |  |  | diminished activity to varying degrees | 65.6 ± 3.6 | fold induction at 0.5 µM ([1]; 500 nM, Table 2): 2.2
11 | Nc1nc2cc(C(=O)O)ccc2cc1-c1ccccc1F [Arylquin 15h, 2-Amino-3-(2-fluorophenyl)quinoline-7-carboxylic add] |  |  | reduced activity | <50 | 

Continued, in another order:

Row | melting point [°C] | Molecule | Relative Levels of Par-4 Secretion by Arylquins Administered at 500 nM ([1]; Table 1) | Par-4 secretory activity (in words) ([1]; 500 nM) | Relative Levels of Par-4 Secretion by Arylquins Administered at 500 nM ([1]; Table 2) | other results
12 | 147 to 148 | CN(C)c1ccc2cc(-c3ccccc3Cl)c(N)nc2c1 [Arylquin 1b, 3-(2-Chlorophenyl)-N^7,N^7-dimethylquinoline-2,7-diamine] |  | comparable in activity |  | 
13 | 159 to 160 | CN(C)c1ccc2cc(-c3ccccc3Br)c(N)nc2c1 [Arylquin 1c, 3-(2-Bromophenyl)-N^7,N^7-dimethylquinoline-2,7-diamine] | 33.6 ± 14.8 | diminished activity |  | 
14 | 144 to 145 | CN(C)c1ccc2cc(-c3cccc(Cl)c3)c(N)nc2c1 [Arylquin 1e, 3-(3-Chlorophenyl)-N^7,N^7-dimethylquinoline-2,7-diamine] | 78.3 ± 15.3 | no improvement |  | fold induction at 0.5 µM ([1]; 500 nM, Table 1): 2.6
15 | 169 to 170 | CN(C)c1ccc2cc(-c3ccc(Cl)cc3)c(N)nc2c1 [Arylquin 1g, 3-(4-Chlorophenyl)-N^7,N^7-dimethylquinoline-2,7-diamine] |  | no improvement |  | 
16 | 174 to 175 | CN(C)c1ccc2cc(-c3ccc(F)cc3F)c(N)nc2c1 [Arylquin 1j, 3-(2,4-Difluorophenyl)-N^7,N^7-dimethylquinoline-2,7-diamine] | 80.8 ± 3.0 | equipotent to the original arylquinoline 1a |  | fold induction at 0.5 µM ([1]; 500 nM, Table 1): 2.7
17 | 148 to 150 | CN(C)c1ccc2cc(-c3c(F)cccc3F)c(N)nc2c1 [Arylquin 1m, 3-(2,6-Difluorophenyl)-N^7,N^7-dimethylquinoline-2,7-diamine] | 44.6 ± 4.6 | did not lead to improved activity |  | fold induction at 0.5 µM ([1]; 500 nM, Table 1): 1.5
18 | 163 to 164 | CN(C)c1ccc2cc(-c3ccc(F)c(F)c3)c(N)nc2c1 [Arylquin 1n, 3-(3,4-Difluorophenyl)-N^7,N^7-dimethylquinoline-2,7-diamine] | 58.4 ± 14.1 | diminished activity relative to 1a |  | fold induction at 0.5 µM ([1]; 500 nM, Table 1): 2
19 | 160 to 162 | CN(C)c1ccc2cc(-c3cc(F)cc(F)c3)c(N)nc2c1 [Arylquin 1o, 3-(3,5-Difluorophenyl)-N^7,N^7-dimethylquinoline-2,7-diamine] | 47.4 ± 16.8 | diminished activity relative to 1a |  | 
20 | > 250 | CN(C)c1ccc2cc3c(nc(N)c4ccccc43)nc2c1 [Arylquin 6, N^9,N^9-Dimethyldibenzo[b,f][1,8]naphthyridine-5,9-diamine] |  | biologically inactive |  | 
21 | > 250 | CN(C)c1ccc2cc3c(nc2c1)[nH]c(=O)c1ccccc13 [Arylquin 7, 9-(Dimethylamino)dibenzo[b,f][1,8]naphthyridin-5(6H)-one] |  | biologically inactive |  | 
22 | 142 to 143 | Nc1nc2cccc(F)c2cc1-c1ccccc1F [Arylquin 15b, 5-Fluoro-3-(2-fluorophenyl)quinolin-2-amine] |  | equipotent to 15a | 83.4 | fold induction at 0.5 µM ([1]; 500 nM, Table 2): 2.8
23 | 194 to 196 | Nc1nc2cccc(Cl)c2cc1-c1ccccc1F [Arylquin 15c, 5-Chloro-3-(2-fluorophenyl)quinolin-2-amine] |  | lower Par-4 secretory activity | 63.2 ± 20.5 | fold induction at 0.5 µM ([1]; 500 nM, Table 2): 2.1
24 | 209 to 210 | Nc1nc2cccc(Br)c2cc1-c1ccccc1F [Arylquin 15d, 5-Bromo-3-(2-fluorophenyl)quinolin-2-amine] |  | lower Par-4 secretory activity | 44.6 | fold induction at 0.5 µM ([1]; 500 nM, Table 2): 1.5
25 | 138 to 139 | Nc1nc2ccc(Cl)cc2cc1-c1ccccc1F [Arylquin 15e, 6-Chloro-3-(2-fluorophenyl)quinolin-2-amine] |  | equipotent to 15a | 81.9 ± 11.2 | fold induction at 0.5 µM ([1]; 500 nM, Table 2): 2.8
26 | 178 to 180 | Nc1nc2cc(Cl)ccc2cc1-c1ccccc1F [Arylquin 15f, 7-Chloro-3-(2-fluorophenyl)quinolin-2-amine] |  | reduced activity | <50 | 
27 | 114 to 116 | COc1ccc2cc(-c3ccccc3F)c(N)nc2c1 [Arylquin 15g, 3-(2-Fluorophenyl)-7-methoxyquinolin-2-amine] |  | reduced activity | <50 | 
